Test system: adenosine-uptake system
Assay: Inhibition of adenosine uptake in rabbit erythrocytes
Type: cell-based
Details: Oryctolagus cuniculus, 0.25 h; rabbit erythrocyte preparation; concentration at which 50% of the adenosine originally employed is still present 15 min after addition; 30° C.
Experimental: 2. Inhibition of Adenosine Uptake in Rabbit Erythrocytes by the Compounds According to the Invention.
The capability of substances to influence the adenosine-uptake system is investigated by determining the inhibitory effect of the substances on functional adenosine uptake. For the functional adenosine-uptake test, an erythrocyte preparation from rabbit blood is used. The blood is drawn intravenously using citrate (3 ml Monovette 9NC from Sarstedt) as anticoagulant. The blood is centrifuged at 3000 g for 5 min and the erythrocytes are suspended in 10 mM MOPS/0.9% NaCl solution pH 7.4. The suspension is diluted to one hundredth of the original blood volume. In each case 990 μl of the suspension are admixed with 10 μl of a suitable concentration of the substance to be investigated, and the mixture is incubated at 30° C. for 5 min. 5 μl of a 4 mM adenosine solution are then added, and the mixture is incubated at 30° C. for another 15 min. The samples are then centrifuged at 3000 g for 5 min and in each case […] of the supernatant are admixed with 28 μl of 70% strength HClO4, allowed to stand in an ice bath for 30 min and centrifuged at 16,000 g for 3 min, and 350 μl of the sample are neutralized using 30 μl of 5N NaOH. 50 μl of the sample are applied to a column (Waters Symmetry C18 […] 3.9×150 mm). A Spherisorb ODS II 5 μm 4.6×10 mm column is used as precolumn. The mobile phase used is a gradient of 50 mM KH2PO^4/5 mM tributylamine pH 7 (mobile phase A) and a mixture of mobile phase A/methanol 1/1 (mobile phase B). The gradient is from 10-40% B, at a flow rate of 0.5 ml/min. The adenosine which is present is quantified by its absorption at 260 nm, as are the hyoxanthine and inosine formed.

| IC50 | Structure (SMILES) |
| --- | --- |
| 15 nM | NC(=O)[C@@H](NC(=O)[C@@H]1CCCC[C@H]1c1ccc(Cn2c(CN3CCOCC3)nc3cccnc32)cc1)c1ccccc1 [Example 3, (S)-N-{{(1R, 2R)-{4-{2-[2-(Morpholin-4-yl-methyl)-1H-pyrido[2,3-d]-imidazol-1-yl]methyl}-phenyl}-cyclohex-1-yl}carbonyl}-phenylglycinamide] |
| 25 nM | NC(=O)[C@@H](NC(=O)[C@@H]1CCCC[C@H]1c1ccc(Cn2c(N3CCNCC3)nc3ccccc32)cc1)c1ccccc1 [Example 10] |
| 20 nM | CC(C)N1CCN(c2nc3ccccc3n2Cc2ccc([C@@H]3CCCC[C@H]3C(=O)N[C@H](C(N)=O)c3ccccc3)cc2)CC1 [Example 8] |
| 10 nM | NC(=O)[C@@H](NC(=O)[C@@H]1CCCC[C@H]1c1ccc(Cn2c(COCCO)nc3cccnc32)cc1)c1ccccc1 [Example 16] |
